Patent publication US20220073532A1, “INHIBITORS OF CGAS ACTIVITY AS THERAPEUTIC AGENTS” (BELLBROOK LABS, LLC, priority 2019, published 2022)
Where two headings read alike, the source gives them in different places.

Molecular target: cGAS (Homo sapiens, UniProt Q8N884)
Experiment: cGAS enzymatic assay (FP/TR-FRET detection of cGAMP)
Assay type: biochemical
Parameters: The cGAS assay was used to screen 100,000 compounds with full-length human cGAS; 6xHis; made in house
Conditions: cGAS (30 nM)
Protocol: Some exemplary compounds of the disclosure were tested for inhibition of cGAS (30 nM). The results are provided in Table 1 where “A” indicates an IC50 of less than 100 nM, “B” indicates an IC50 of greater than 100 nM and less than 500 nM, “C” indicates an IC50 of greater than 500 nM and less than 1 μM, “D” indicates an IC50 of greater than 1 μM and less than 10 μM, and “E” indicates an IC50 of greater than 10 μM.
A homogenous cGAS enzymatic assay was developed with fluorescence polarization (FP) and time-resolved Forster resonance energy transfer (TR-FRET) readouts (FIG. 2A-2D). The cGAS assay was used to screen 100,000 compounds with full-length human cGAS (FIG. 2E), resulting in the identification of the novel chemotype of the disclosure, two of which are further developed in a structure-driven hit-to-lead study (Table 3, below). The assay performance was robust, as indicated by respective Z and Z′ values of 0.59 and 0.63 in the screen; compounds with polarization values greater than three SDs from the mean were considered hits; a scatterplot from 10 plates (3,200 compounds) is shown in FIG. 2D.
Biochemical and biophysical analysis: Potency and MOA studies, including Mn^2+ sensitivity, are performed using the cGAS enzymatic assay. Dose response experiments are used to determine IC50 values under basal conditions (5 mM MgCl2, 100 μM ATP/GTP), and with the addition of physiological levels of Mn (0.2 mM) using human and mouse cGAS. Ligand optimization is driven by potency with the human enzyme; potency with mouse cGAS informs selection of an appropriate disease model for efficacy studies. Competition with ATP and GTP is assessed by comparing basal IC50 values to those in the presence of saturating ATP or GTP, and subsequently confirmed by measuring velocity vs. substrate at varying ATP or GTP levels. Inhibitor residence times (1/koff) are used as a key parameter for prioritizing compounds and driving SAR, because a longer residence time often results from an allosteric mechanism, and can also correlate with improved cellular activity. The cGAS enzymatic assay is used with the jump dilution method to measure residence times (inhibitor dissociation rates), as described for kinases using the very similar ADP assay. Biophysical methods, including SPR and TSA, are used as orthologous methods for residence time measurements and kd estimates.

[1] = with Mn^2+, read-out: Inhibition cGAS + Mn^2+

Sequence of cGAS (Q8N884 whole entry): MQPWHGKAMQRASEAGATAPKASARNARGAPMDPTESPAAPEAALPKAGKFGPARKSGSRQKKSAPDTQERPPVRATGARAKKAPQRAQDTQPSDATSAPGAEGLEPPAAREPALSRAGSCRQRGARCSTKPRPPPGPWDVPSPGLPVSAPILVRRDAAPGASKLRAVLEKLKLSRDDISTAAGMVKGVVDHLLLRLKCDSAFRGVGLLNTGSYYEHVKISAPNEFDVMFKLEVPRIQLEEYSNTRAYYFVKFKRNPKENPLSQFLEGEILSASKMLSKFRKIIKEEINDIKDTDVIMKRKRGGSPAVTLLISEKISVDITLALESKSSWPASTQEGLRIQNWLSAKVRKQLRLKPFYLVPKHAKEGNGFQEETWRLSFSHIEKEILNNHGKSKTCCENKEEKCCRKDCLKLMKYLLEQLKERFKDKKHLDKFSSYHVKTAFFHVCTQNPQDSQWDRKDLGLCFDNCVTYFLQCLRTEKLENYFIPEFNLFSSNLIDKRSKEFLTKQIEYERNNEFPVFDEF

Structure (SMILES) | IC50 (read-out: Inhibition cGAS) | IC50 [1] | Inhibition cGAS
Cc1nc(N2C[C@@H](NC(N)=O)C[C@H]2C(=O)O)c2oc3ccccc3c2n1 [Compound 43, (2S,4S)-1-(2-methylbenzofuro[3,2-d]pyrimidin-4-yl)-4-ureidopyrrolidine-2-carboxylic acid] | 1000 to 10000 nM | – | –
Cc1nc(N2C[C@@H](NC(=O)C(C)(C)c3ccnc(C(F)(F)F)c3)C[C@H]2C(=O)O)c2oc3ccccc3c2n1 [Compound 61, (2S,4S)-4-(2-methyl-2-(2-(trifluoromethyl)pyridin-4-yl)propanamido)-1-(2-methylbenzofuro[3,2-d]pyrimidin-4-yl)pyrrolidine-2-carboxylic acid] | 500 to 1000 nM | 1000 to 10000 nM | –
Cc1nc(N2C[C@@H](Nc3cc[nH]n3)C[C@H]2C(=O)O)c2oc3ccccc3c2n1 [Compound 26, (2S,4S)-4-((1H-pyrazol-3-yl)amino)-1-(2-methylbenzofuro[3,2-d]pyrimidin-4-yl)pyrrolidine-2-carboxylic acid] | 100 to 500 nM | – | –
Cc1nc(N2C[C@@H](CC(=O)Nc3ccccc3)C[C@H]2C(=O)O)c2oc3ccccc3c2n1 [Compound 52, (2S,4R)-1-(2-methylbenzofuro[3,2-d]pyrimidin-4-yl)-4-(2-oxo-2-(phenylamino)ethyl)pyrrolidine-2-carboxylic acid] | 100 to 500 nM | 1000 to 10000 nM | –
C[C@H](Nc1nc(-c2ccccc2)nc2c1oc1ccccc12)C(=O)O [Compound 3, (2-phenylbenzofuro[3,2-d]pyrimidin-4-yl)-L-alanine] | 1000 to 10000 nM | > 10000 nM | –
Cc1nc(N2C[C@@H](CC(=O)NC3CCCC3)C[C@H]2C(=O)O)c2oc3ccccc3c2n1 [Compound 51, (2S,4R)-4-(2-(cyclopentylamino)-2-oxoethyl)-1-(2-methylbenzofuro[3,2-d]pyrimidin-4-yl)pyrrolidine-2-carboxylic acid] | 100 to 500 nM | 1000 to 10000 nM | –
Cc1nc(N2C[C@@H](NC(=O)Cc3c[nH]cn3)C[C@H]2C(=O)O)c2oc3ccccc3c2n1 [Compound 40, (2S,4S)-4-(2-(1H-imidazol-4-yl)acetamido)-1-(2-methylbenzofuro[3,2-d]pyrimidin-4-yl)pyrrolidine-2-carboxylic acid] | 500 to 1000 nM | – | –
Cc1nc(N2C[C@@H](Nc3n[nH]c4ccccc34)C[C@H]2C(=O)O)c2oc3ccccc3c2n1 [Compound 55, (2S,4S)-4-((1H-indazol-3-yl)amino)-1-(2-methylbenzofuro[3,2-d]pyrimidin-4-yl)pyrrolidine-2-carboxylic acid] | 500 to 1000 nM | 1000 to 10000 nM | –
Cc1nc(N2C[C@@H](NC3CCCNC3)C[C@H]2C(=O)O)c2oc3ccccc3c2n1 (stereo partly drawn) [Compound 37, (2S,4S)-1-(2-methylbenzofuro[3,2-d]pyrimidin-4-yl)-4-(piperidin-3-ylamino)pyrrolidine-2-carboxylic acid] | 500 to 1000 nM | – | –
Cc1nc(N2C[C@@H](Nc3n[nH]cc3-c3ccccc3)CC2C(=O)O)c2oc3cc(F)ccc3c2n1 (stereo in doubt) [Compound 56, (2R,4S)-1-(7-fluoro-2-methylbenzofuro[3,2-d]pyrimidin-4-yl)-4-((4-phenyl-1H-pyrazol-3-yl)amino)pyrrolidine-2-carboxylic acid] | 500 to 1000 nM | 1000 to 10000 nM | –
CCc1nc(N2CCC[C@H]2C(=O)NS(=O)(=O)N(C)C)c2oc3ccccc3c2n1 [Compound 14, (S)-N-(N,N-dimethylsulfamoyl)-1-(2-ethylbenzofuro[3,2-d]pyrimidin-4-yl)pyrrolidine-2-carboxamide] | > 10000 nM | > 10000 nM | –
O=C(O)[C@@H]1CCCN1c1nc(-c2ccccc2)nc2c1oc1ccccc12 [Compound 13, (2-phenylbenzofuro[3,2-d]pyrimidin-4-yl)-L-proline] | > 10000 nM | > 10000 nM | –
Cc1nc(N2C[C@@H](Nc3n[nH]cc3C(C)C)C[C@H]2C(=O)O)c2oc3ccccc3c2n1 [Compound 59, (2S,4S)-4-((4-isopropyl-1H-pyrazol-3-yl)amino)-1-(2-methylbenzofuro[3,2-d]pyrimidin-4-yl)pyrrolidine-2-carboxylic acid] | 100 to 500 nM | 1000 to 10000 nM | –
Cc1nc(N2C[C@@H](Nc3cccnc3)C[C@H]2C(=O)O)c2oc3ccccc3c2n1 [Compound 39, (2S,4S)-1-(2-methylbenzofuro[3,2-d]pyrimidin-4-yl)-4-(pyridin-3-ylamino)pyrrolidine-2-carboxylic acid] | – | – | B, D
Cc1nc(N2C[C@@H](NC(=O)Cc3cccnc3)C[C@H]2C(=O)O)c2oc3ccccc3c2n1 [Compound 34, (2S,4S)-1-(2-methylbenzofuro[3,2-d]pyrimidin-4-yl)-4-(2-(pyridin-3-yl)acetamido)pyrrolidine-2-carboxylic acid] | 500 to 1000 nM | – | –
Cc1nc(N2C[C@@H](CC(=O)Nc3ccccn3)C[C@H]2C(=O)O)c2oc3ccccc3c2n1 [Compound 46, (2S,4R)-1-(2-methylbenzofuro[3,2-d]pyrimidin-4-yl)-4-(2-oxo-2-(pyridin-2-ylamino)ethyl)pyrrolidine-2-carboxylic acid] | 1000 to 10000 nM | – | –
Cc1nc(N2CCC[C@H]2C(=O)O)c2oc3cc(F)ccc3c2n1 [Compound 69, (7-fluoro-2-methylbenzofuro[3,2-d]pyrimidin-4-yl)-L-proline] | 500 to 1000 nM | 1000 to 10000 nM | –
Cc1nc(N2C[C@@H](Nc3n[nH]cc3-c3ccccc3)C[C@H]2C(=O)O)c2oc3ccccc3c2n1 [Compound 41] | 500 to 1000 nM | – | –
CCc1nc(N2CC[C@H]2C(=O)O)c2oc3ccccc3c2n1 [Compound 19, (S)-1-(2-ethylbenzofuro[3,2-d]pyrimidin-4-yl)azetidine-2-carboxylic acid] | 1000 to 10000 nM | 1000 to 10000 nM | –
Cc1nc(N2C[C@@H](NC(=O)c3ncc[nH]3)C[C@H]2C(=O)O)c2oc3ccccc3c2n1 [Compound 47, (2S,4S)-4-(1H-imidazole-2-carboxamido)-1-(2-methylbenzofuro[3,2-d]pyrimidin-4-yl)pyrrolidine-2-carboxylic acid] | 1000 to 10000 nM | – | –
Cc1nc(N2C[C@@H](CC(N)=O)C[C@H]2C(=O)O)c2oc3ccccc3c2n1 [Compound 45, (2S,4R)-4-(2-amino-2-oxoethyl)-1-(2-methylbenzofuro[3,2-d]pyrimidin-4-yl)pyrrolidine-2-carboxylic acid] | 500 to 1000 nM | – | –
O=C(O)[C@@H]1CCCN1c1nc(C2CCCC2)nc2c1oc1ccccc12 [Compound 12, (2-cyclopentylbenzofuro[3,2-d]pyrimidin-4-yl)-L-proline] | > 10000 nM | > 10000 nM | –
Cc1nc(N2C[C@@H](Nc3n[nH]cc3-c3ccccn3)C[C@H]2C(=O)O)c2oc3ccccc3c2n1 [Compound 63, (2S,4S)-1-(2-methylbenzofuro[3,2-d]pyrimidin-4-yl)-4-((4-(pyridin-2-yl)-1H-pyrazol-3-yl)amino)pyrrolidine-2-carboxylic acid] | 1000 to 10000 nM | 1000 to 10000 nM | –
O=C(O)C1CCCN(c2ncnc3c2oc2ccccc23)C1 (centres unmarked) [Compound 6, 1-(benzofuro[3,2-d]pyrimidin-4-yl)piperidine-3-carboxylic acid] | > 10000 nM | > 10000 nM | –
CCc1nc(N(C)[C@@H](C)C(=O)O)c2oc3ccccc3c2n1 [Compound 17, N-(2-ethylbenzofuro[3,2-d]pyrimidin-4-yl)-N-methyl-L-alanine] | 1000 to 10000 nM | > 10000 nM | –
O=C(O)[C@@H]1CCCN1c1nc(C2CCCCC2)nc2c1oc1ccccc12 [Compound 10, (2-cyclohexylbenzofuro[3,2-d]pyrimidin-4-yl)-L-proline] | > 10000 nM | > 10000 nM | –
CC(C)c1nc(N2CCC[C@H]2C(=O)O)c2oc3ccccc3c2n1 [Compound 9, (2-isopropylbenzofuro[3,2-d]pyrimidin-4-yl)-L-proline] | 1000 to 10000 nM | > 10000 nM | –
O=C(O)[C@@H]1CCCN1c1nc(C2CC2)nc2c1oc1ccccc12 [Compound 8, (2-cyclopropylbenzofuro[3,2-d]pyrimidin-4-yl)-L-proline] | 1000 to 10000 nM | > 10000 nM | –
O=C(O)[C@@H]1CCCN1c1ncnc2c1oc1ccccc12 [Compound 4, benzofuro[3,2-d]pyrimidin-4-yl-L-proline] | 1000 to 10000 nM | > 10000 nM | –
Cc1nc(N2C[C@@H](NC(=O)C3(c4ccncc4)CC3)C[C@H]2C(=O)O)c2oc3ccccc3c2n1 [Compound 62, (2S,4S)-1-(2-methylbenzofuro[3,2-d]pyrimidin-4-yl)-4-(1-(pyridin-4-yl)cyclopropane-1-carboxamido)pyrrolidine-2-carboxylic acid] | 500 to 1000 nM | 1000 to 10000 nM | –
